These compounds were tested against Human Factor D (Homo sapiens (Human), UniProt P00746) (assay: Human Factor D Assay). Settings: Factor D inhibition, assay of Example 10; read-out: IC50 (Stars).
Chain of Human Factor D (P00746 26-253): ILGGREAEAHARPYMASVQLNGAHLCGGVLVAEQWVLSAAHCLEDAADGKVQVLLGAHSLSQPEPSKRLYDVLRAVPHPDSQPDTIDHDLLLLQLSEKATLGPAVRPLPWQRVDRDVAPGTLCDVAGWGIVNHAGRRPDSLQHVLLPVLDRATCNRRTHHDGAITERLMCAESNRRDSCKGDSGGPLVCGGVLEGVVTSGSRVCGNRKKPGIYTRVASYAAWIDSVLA
Format: biochemical
Procedure: Human Factor D (purified from human serum, Complement Technology, Inc.) at 80 nM final concentration is incubated with test compound at various concentrations for 5 min at room temperature in 50 mM Tris, 1M NaCl, pH 7.5. A synthetic substrate Z-L-Lys-SBzl and DTNB (Ellman's reagent) are added to final concentrations of 100 μM each. Absorbance at 405 nm (A405) is recorded at 30 second intervals for 30 min using a microplate spectrophotometer. IC50 values are calculated by nonlinear regression of complement Factor D reaction rates as a function of test compound concentration.
In the case of `CC(=O)c1nn(CC(=O)N2[C@H](C(=O)Nc3nc(Br)ccc3C)C[C@@]3(C)C[C@@H]23)c2cnc(-c3cnc(C)cn3)cc12` [Compound 303], the IC50 is reported as < 1000 nM. For `COCc1ncc(-c2ccc3c(c2)c(C(C)=O)nn3CC(=O)N2[C@H](C(=O)Nc3nc(Br)ccc3C)C[C@@]3(C)C[C@@H]23)cn1` [Compound 278, (1R,3S,5R)-2-(2-(3-acetyl-5-(2-(methoxymethyl)py-rimidin-5-yl)-1H-indazol-1-yl)acetyl)-N-(6-bromo-3-methylpyridin-2-yl)-5-methyl-2-azabicyclo[3.1.0]hexane-3-carboxamide], the IC50 was < 1000 nM. `CC(=O)c1nn(CC(=O)N(C(=O)[C@@H]2C[C@@]3(C)C[C@H]3N2)c2cccc(Br)n2)c2cnc(-c3cnc(C)nc3)cc12` [Compound 334, (1R,3S,5R)-2-(2-(3-acetyl-5-(2-methylpyrimidin-5-yl)-1H-pyrazolo[3,4-c]pyridin-1-yl)acetyl)-N-(6-bromopyridin-2-yl)-5-methyl-2-azabicyclo[3.1.0]hexane-3-carboxamide] was tested, and the IC50 was < 1000 nM. With `CC(=O)c1nn(CC(=O)N2[C@H](C(=O)Nc3nc(Br)c(F)cc3C)C[C@@]3(CN(CCO)CCO)C[C@@H]23)c2cnc(-c3cnc(C)nc3)cc12` [Compound 248, (1R,3S,5R)-2-(2-(3-acetyl-5-(2-methylpyrimidin-5-yl)-1H-pyrazolo[3,4-c]pyridin-1-yl)acetyl)-5-((bis(2-hydroxy-ethyl)amino)methyl)-N-(6-bromo-5-fluoro-3-methylpyridin-2-yl)-2-azabicyclo[3.1.0]hexane-3-carboxamide] the IC50 was < 1000 nM. With `CC(=O)c1nn(CC(=O)N2[C@H](C(=O)Nc3nc(Br)ccc3COCCF)C[C@@]3(C)C[C@@H]23)c2ccc(-c3cnc(C)nc3)cc12` [Compound 301, (1R,3S,5R)-2-(2-(3-acetyl-5-(2-methylpyrimidin-5-yl)-1H-indazol-1-yl)acetyl)-N-(6-bromo-3-((2-fluoro-ethoxy)methyl)pyridin-2-yl)-5-methyl-2-azabicyclo[3.1.0]hexane-3-carboxamide] the IC50 was < 1000 nM. With `CC(=O)c1nn(CC(=O)N2[C@H](C(=O)Nc3nc(Br)c(F)cc3C)C[C@@]3(CC#N)C[C@@H]23)c2cnc(-c3cnc(C)nc3)cc12` [Compound 249, (1R,3S,5R)-2-(2-(3-acetyl-5-(2-methylpyrimidin-5-yl)-1H-pyrazolo[3,4-c]pyridin-1-yl)acetyl)-N-(6-bromo-5-fluoro-3-methylpyridin-2-yl)-5-(cyanomethyl)-2-azabicyclo[3.1.0]hexane-3-carboxamide] the IC50 was < 1000 nM.

Same assay, conditions: Table 6; Factor D 80 nM, substrate Z-L-Lys-SBzl; read-out: IC50
With `CC(=O)c1nn(CC(=O)N2C[C@H]3C[C@H]3[C@H]2C(=O)N2C[C@H]3C[C@H]3[C@H]2C(=O)Nc2nc(Br)ccc2C)c2c(C)cc(-c3cnc(C)nc3)cc12` [Compound 92, (1R,2S,5S)-3-((1R,2S,5S)-3-(2-(3-acetyl-7-methyl-5-(2-methylpyrimidin-5-yl)-1H-indazol-1-yl)acetyl)-3-azabicyclo[3.1.0]hexane-2-carbonyl)-N-(6-bromo-3-methylpyridin-2-yl)-3-azabicyclo[3.1.0] hexane-2-carboxamide] the IC50 was 1000 to 10000 nM. For `CC(=O)c1nn(CC(=O)N2[C@H](C(=O)Nc3nc(Br)ccc3C)C[C@@]3(C)C[C@@H]23)c2c(CN(C)C)cc(-c3cnc(C)nc3)cc12` [Compound 167, (1R,3S,5R)-2-(2-(3-Acetyl-7-((dimethylamino)methyl)-5-(2-methylpyrimidin-5-yl)-1H-indazol-1-yl)acetyl)-N-(6-bromo-3-methylpyridin-2-yl)-5-methyl-2-azabicyclo[3.1.0]hexane-3-carboxamide], the IC50 was < 1000 nM. With `CC(=O)c1nn(CC(=O)N2[C@H](C(=O)O)C[C@@]3(C)C[C@@H]23)c2c(C)cc(-c3cnc(C)nc3)cc12` [Compound 126, (1R,3S,5R)-2-(2-(3-acetyl-7-methyl-5-(2-methylpyrimidin-5-yl)-1H-indazol-1-yl)acetyl)-5-methyl-2-azabicyclo[3.1.0] hexane-3-carboxylic acid] the IC50 was > 10000 nM. In the case of “(3S)-5-(3-Azabicyclo[3.1.1]heptan-3-ylmethyl)-2-(2-(3-acetyl-5-(2-methylpyrimidin-5-yl)-1H-indazol-1-yl)acetyl)-N-(6-bromo-3-methylpyridin-2-yl)-2-azabicyclo[3.1.0]hexane-3-carboxamide [Compound 13]”, the IC50 is reported as < 1000 nM. With `CC(=O)c1c2cc(-c3cnc(C)nc3)cc(C(F)(F)F)c2nn1CC(=O)N1[C@H](C(=O)Nc2nc(Br)ccc2C)C[C@@]2(C)C[C@@H]12` [Compound 217, (1R,3S,5R)-2-(2-(3-acetyl-5-(2-methylpyrimidin-5-yl)-7-(trifluoromethyl)-2H-indazol-2-yl)acetyl)-N-(6-bromo-3-methylpyridin-2-yl)-5-methyl-2-azabicyclo[3.1.0] hexane-3-carboxamide] the IC50 was > 10000 nM.

Same assay, conditions: Table 7; Factor D inhibition, assay of Example 10; read-out: IC50 (Stars)
`CC(=O)c1nn(CC(=O)N2[C@H](C(=O)Nc3cc(-c4ccccc4O)cc(Br)n3)C[C@@]3(C)C[C@@H]23)c2ccc(-c3cnc(C)nc3)cc12` [Compound 556, (1R,3S,5R)-2-(2-(3-acetyl-5-(2-methylpyrimidin-5-yl)-1H-indazol-1-yl)acetyl)-N-(6-bromo-4-(2-hydroxyphenyl)pyridin-2-yl)-5-methyl-2-azabicyclo[3.1.0]hexane-3-carboxamide] was tested, and the IC50 was < 1000 nM.

Same assay, conditions: Table 8; Factor D 80 nM, substrate Z-L-Lys-SBzl; read-out: IC50
`COC(=O)CCCCCCCCCCCCCCCCC(=O)N[C@@H](CCC(=O)NCCOCCOCC(=O)NCCOCCOCC(=O)NCc1ncc(-c2cc(C)c3c(c2)c(C(C)=O)nn3CC(=O)N2[C@H](C(=O)Nc3nc(Br)ccc3C)C[C@@]3(C)C[C@@H]23)cn1)C(=O)OC` [Compound 403, (S)-methyl 1-(5-(3-acetyl-1-(2-((1R,3S,5R)-3-((6-bromo-3-methylpyridin-2-yl)carbamoyl)-5-methyl-2-azabicyclo[3.1.0]hexan-2-yl)-2-oxoethyl)-7-methyl-1H-indazol-5-yl)pyrimidin-2-yl)-24-(methoxycarbonyl)-3,12,21,26-tetraoxo-5,8,14,17-tetraoxa-2,11,20,25-tetraazatritetracontan-43-oate] was tested, and the IC50 was < 1000 nM. `CC(=O)c1nn(CC(=O)N2[C@H](C(=O)Nc3nc(Br)ccc3C)C[C@@]3(CNC(=O)COCCOCCNC(=O)COCCOCCNC(=O)CC[C@H](NC(=O)CCCCCCCCCCCCCCCCC(=O)O)C(=O)O)C[C@@H]23)c2ccc(-c3cnc(C)nc3)cc12` [Compound 379, (S)-1-((1R,3S,5R)-2-(2-(3-acetyl-5-(2-methylpyrimidin-5-yl)-1H-indazol-1-yl)acetyl)-3-((6-bromo-3-methylpyridin-2-yl)carbamoyl)-2-azabicyclo[3.1.0]hexan-5-yl)-24-carboxy-3,12,21,26-tetraoxo-5,8,14,17-tetraoxa-2,11,20,25-tetraazatritetracontan-43-oic acid] was tested, and the IC50 was < 1000 nM.

— patent publication US11708351B2 (Achillion Pharmaceuticals, Inc., priority 2017, dated 2023)
